According to PubChem BioAssay (NCI):
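All cell lines were grown in 96-well plates and treated with compound for 48 hours. GI50: concentration for 50% inhibition of growth. TGI denotes the concentration required for complete inhibition of growth.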

Assays:
Assay in all cases: NCI tumour cell line growth inhibition, 48 h
K-562 leukemia = tested on: K-562 leukemia
MCF7 breast = tested on: MCF7 breast
SNB-78 CNS = tested on: SNB-78 CNS
IGROV1 ovarian = tested on: IGROV1 ovarian
CAKI-1 renal = tested on: CAKI-1 renal
KM20L2 colon = tested on: KM20L2 colon
U251 CNS = tested on: U251 CNS
OVCAR-5 ovarian = tested on: OVCAR-5 ovarian
SF-268 CNS = tested on: SF-268 CNS
NCI/ADR-RES ovarian = tested on: NCI/ADR-RES ovarian
P388/ADR leukemia = tested on: P388/ADR leukemia
A498 renal = tested on: A498 renal
HOP-62 NSCLC = tested on: HOP-62 NSCLC
OVCAR-4 ovarian = tested on: OVCAR-4 ovarian
EKVX NSCLC = tested on: EKVX NSCLC
MALME-3M melanoma = tested on: MALME-3M melanoma
SK-MEL-2 melanoma = tested on: SK-MEL-2 melanoma
SW-620 colon = tested on: SW-620 colon
HCT-15 colon = tested on: HCT-15 colon
HCC-2998 colon = tested on: HCC-2998 colon
HOP-18 NSCLC = tested on: HOP-18 NSCLC
SN12K1 renal = tested on: SN12K1 renal
A549 NSCLC = tested on: A549 NSCLC
NCI-H460 lung = tested on: NCI-H460 lung
HOP-92 NSCLC = tested on: HOP-92 NSCLC
NCI-H522 lung = tested on: NCI-H522 lung
DMS 273 small cell lung = tested on: DMS 273 small cell lung
NCI-H23 lung = tested on: NCI-H23 lung
SNB-75 CNS = tested on: SNB-75 CNS
XF 498 CNS = tested on: XF 498 CNS
MOLT-4 leukemia = tested on: MOLT-4 leukemia
OVCAR-3 ovarian = tested on: OVCAR-3 ovarian
DLD-1 colon = tested on: DLD-1 colon
P388 leukemia = tested on: P388 leukemia
HT29 colon = tested on: HT29 colon
OVCAR-8 ovarian = tested on: OVCAR-8 ovarian
SF-295 CNS = tested on: SF-295 CNS
UACC-257 melanoma = tested on: UACC-257 melanoma
SN12C renal = tested on: SN12C renal
RXF 393 renal = tested on: RXF 393 renal
LOX IMVI melanoma = tested on: LOX IMVI melanoma
SK-MEL-5 melanoma = tested on: SK-MEL-5 melanoma
SK-MEL-28 melanoma = tested on: SK-MEL-28 melanoma
UO-31 renal = tested on: UO-31 renal
KM12 colon = tested on: KM12 colon
HCT-116 colon = tested on: HCT-116 colon
CCRF-CEM leukemia = tested on: CCRF-CEM leukemia
HL-60(TB) leukemia = tested on: HL-60(TB) leukemia
UACC-62 melanoma = tested on: UACC-62 melanoma
SK-OV-3 ovarian = tested on: SK-OV-3 ovarian
NCI-H226 lung = tested on: NCI-H226 lung
SNB-19 CNS = tested on: SNB-19 CNS
RPMI-8226 leukemia = tested on: RPMI-8226 leukemia
SF-539 CNS = tested on: SF-539 CNS
COLO 205 colon = tested on: COLO 205 colon
M19-MEL melanoma = tested on: M19-MEL melanoma
DMS 114 small cell lung = tested on: DMS 114 small cell lung

NC1CCCCC1N.Nc1c(N=Nc2ccc(-c3ccc(N=Nc4cc(S(=O)(=O)[O-])c5ccccc5c4N)cc3)cc2)cc(S(=O)(=O)[O-])c2ccccc12.[OH3+].[OH3+].[Pt+4]
GI50 (K-562 leukemia): 25 µM
TGI (K-562 leukemia): 64.2 µM
GI50 (MCF7 breast): 30.9 µM
TGI (MCF7 breast): > 100 µM
GI50 (SNB-78 CNS): > 76.5 µM
TGI (SNB-78 CNS): > 100 µM
GI50 (IGROV1 ovarian): 48.5 µM
TGI (IGROV1 ovarian): > 100 µM
GI50 (CAKI-1 renal): > 39.9 µM
TGI (CAKI-1 renal): > 56.9 µM
GI50 (KM20L2 colon): > 100 µM
TGI (KM20L2 colon): > 100000 nM
GI50 (U251 CNS): > 100 µM
TGI (U251 CNS): > 100 µM
GI50 (OVCAR-5 ovarian): > 100 µM
TGI (OVCAR-5 ovarian): > 100 µM
GI50 (SF-268 CNS): > 78.6 µM
TGI (SF-268 CNS): > 100 µM
GI50 (NCI/ADR-RES ovarian): 20.9 µM
TGI (NCI/ADR-RES ovarian): 43 µM
GI50 (P388/ADR leukemia): 22.6 µM
TGI (P388/ADR leukemia): > 62 µM
GI50 (A498 renal): > 100 µM
TGI (A498 renal): > 100 µM
GI50 (HOP-62 NSCLC): > 100 µM
TGI (HOP-62 NSCLC): > 100 µM
GI50 (OVCAR-4 ovarian): 35.3 µM
TGI (OVCAR-4 ovarian): > 93 µM
GI50 (EKVX NSCLC): 33.8 µM
TGI (EKVX NSCLC): 81.7 µM
GI50 (MALME-3M melanoma): 15.4 µM
TGI (MALME-3M melanoma): 22.2 µM
GI50 (SK-MEL-2 melanoma): 45.6 µM
TGI (SK-MEL-2 melanoma): > 100 µM
GI50 (SW-620 colon): 25.2 µM
TGI (SW-620 colon): 49.4 µM
GI50 (HCT-15 colon): > 43.3 µM
TGI (HCT-15 colon): > 59.6 µM
GI50 (HCC-2998 colon): > 90.9 µM
TGI (HCC-2998 colon): > 100 µM
GI50 (HOP-18 NSCLC): 24.5 µM
TGI (HOP-18 NSCLC): 53.3 µM
GI50 (SN12K1 renal): 27.3 µM
TGI (SN12K1 renal): > 58200 nM
GI50 (A549 NSCLC): > 76.5 µM
TGI (A549 NSCLC): > 100 µM
GI50 (NCI-H460 lung): 40 µM
TGI (NCI-H460 lung): > 100000 nM
GI50 (HOP-92 NSCLC): 14.2 µM
TGI (HOP-92 NSCLC): 19.9 µM
GI50 (NCI-H522 lung): 19.6 µM
TGI (NCI-H522 lung): 37.9 µM
GI50 (DMS 273 small cell lung): 59.2 µM
TGI (DMS 273 small cell lung): > 100000 nM
GI50 (NCI-H23 lung): 67.9 µM
TGI (NCI-H23 lung): > 100000 nM
GI50 (SNB-75 CNS): > 77.2 µM
TGI (SNB-75 CNS): > 100000 nM
GI50 (XF 498 CNS): 20.4 µM
TGI (XF 498 CNS): 42 µM
GI50 (MOLT-4 leukemia): 21.1 µM
TGI (MOLT-4 leukemia): 54.6 µM
GI50 (OVCAR-3 ovarian): 42.8 µM
TGI (OVCAR-3 ovarian): > 60100 nM
GI50 (DLD-1 colon): 21.1 µM
TGI (DLD-1 colon): 43.5 µM
GI50 (P388 leukemia): 26.3 µM
TGI (P388 leukemia): 90.5 µM
GI50 (HT29 colon): 20.1 µM
TGI (HT29 colon): 38.8 µM
GI50 (OVCAR-8 ovarian): 26.8 µM
TGI (OVCAR-8 ovarian): > 68.1 µM
GI50 (SF-295 CNS): > 100 µM
TGI (SF-295 CNS): > 100000 nM
GI50 (UACC-257 melanoma): 18.1 µM
TGI (UACC-257 melanoma): 34.7 µM
GI50 (SN12C renal): > 56.9 µM
TGI (SN12C renal): > 100 µM
GI50 (RXF 393 renal): 20.3 µM
TGI (RXF 393 renal): 68.5 µM
GI50 (LOX IMVI melanoma): > 52.2 µM
TGI (LOX IMVI melanoma): > 80.7 µM
GI50 (SK-MEL-5 melanoma): 33 µM
TGI (SK-MEL-5 melanoma): > 83.9 µM
GI50 (SK-MEL-28 melanoma): 22 µM
TGI (SK-MEL-28 melanoma): 42.2 µM
GI50 (UO-31 renal): > 100 µM
TGI (UO-31 renal): > 100 µM
GI50 (KM12 colon): > 60.5 µM
TGI (KM12 colon): > 100 µM
GI50 (HCT-116 colon): > 96.1 µM
TGI (HCT-116 colon): > 100 µM
GI50 (CCRF-CEM leukemia): 29.2 µM
TGI (CCRF-CEM leukemia): > 79.3 µM
GI50 (HL-60(TB) leukemia): 21.2 µM
TGI (HL-60(TB) leukemia): 50.9 µM
GI50 (UACC-62 melanoma): 61.4 µM
TGI (UACC-62 melanoma): > 100 µM
GI50 (SK-OV-3 ovarian): > 100 µM
TGI (SK-OV-3 ovarian): > 100 µM
GI50 (NCI-H226 lung): > 52.6 µM
TGI (NCI-H226 lung): > 100 µM
GI50 (SNB-19 CNS): > 100 µM
TGI (SNB-19 CNS): > 100000 nM
GI50 (RPMI-8226 leukemia): 25.2 µM
TGI (RPMI-8226 leukemia): 66.3 µM
GI50 (SF-539 CNS): > 100 µM
TGI (SF-539 CNS): > 100000 nM
GI50 (COLO 205 colon): 17.1 µM
TGI (COLO 205 colon): 32.9 µM

Cc1c2c(cc3c1[nH]c1ccccc13)C(c1ccc(Cl)cc1)=NCC2
TGI (K-562 leukemia): 8.87 µM
TGI (MCF7 breast): 7.32 µM
TGI (SNB-78 CNS): 27.1 µM
TGI (IGROV1 ovarian): 24.1 µM
TGI (KM20L2 colon): 809 nM
TGI (U251 CNS): 5.7 µM
TGI (OVCAR-5 ovarian): 33.7 µM
TGI (SF-268 CNS): 22 µM
TGI (NCI/ADR-RES ovarian): 1.39 µM
TGI (P388/ADR leukemia): 18.4 µM
TGI (A498 renal): 10.2 µM
TGI (HOP-62 NSCLC): 11.2 µM
TGI (OVCAR-4 ovarian): 6.49 µM
TGI (EKVX NSCLC): 35.1 µM
TGI (MALME-3M melanoma): 55.9 µM
TGI (SK-MEL-2 melanoma): 7.9 µM
TGI (SW-620 colon): 19 µM
TGI (M19-MEL melanoma): 88.8 µM
TGI (HCT-15 colon): 9.89 µM
TGI (HCC-2998 colon): 10.7 µM
TGI (HOP-18 NSCLC): 10.6 µM
TGI (SN12K1 renal): 829 nM
TGI (A549 NSCLC): 11.8 µM
TGI (NCI-H460 lung): 1330 nM
TGI (HOP-92 NSCLC): 30.8 µM
TGI (NCI-H522 lung): 4.45 µM
TGI (DMS 273 small cell lung): 2620 nM
TGI (NCI-H23 lung): 2980 nM
TGI (SNB-75 CNS): 1420 nM
TGI (XF 498 CNS): 0.0949 µM
TGI (MOLT-4 leukemia): 1.79 µM
TGI (OVCAR-3 ovarian): 1780 nM
TGI (DLD-1 colon): 19 µM
TGI (P388 leukemia): 1.47 µM
TGI (HT29 colon): 0.687 µM
TGI (OVCAR-8 ovarian): 7.14 µM
TGI (SF-295 CNS): 718 nM
TGI (UACC-257 melanoma): 43.9 µM
TGI (SN12C renal): 3.46 µM
TGI (RXF 393 renal): 2.45 µM
TGI (LOX IMVI melanoma): 11.4 µM
TGI (SK-MEL-5 melanoma): 3.83 µM
TGI (DMS 114 small cell lung): 3.87 µM
TGI (SK-MEL-28 melanoma): 61.2 µM
TGI (UO-31 renal): 8.99 µM
TGI (KM12 colon): 18.2 µM
TGI (HCT-116 colon): 12.7 µM
TGI (CCRF-CEM leukemia): 8.54 µM
TGI (HL-60(TB) leukemia): 0.717 µM
TGI (UACC-62 melanoma): 17.6 µM
TGI (SK-OV-3 ovarian): 9.23 µM
TGI (NCI-H226 lung): 6.82 µM
TGI (SNB-19 CNS): 1720 nM
TGI (RPMI-8226 leukemia): 8.23 µM
TGI (SF-539 CNS): 2530 nM
TGI (COLO 205 colon): 13.2 µM
